Reference: patent publication US6677381B1 (Jame Fine Chemicals, Inc., priority 2001, dated 2004)
Read-outs that look alike come from different tables or passages of the source.

Tests used:
[1] = Solubility in water and organic solvents; type: physicochemical
Excerpt: The guaifenesin tannate of the invention is a light-tan colored powder which is soluble in water and alcohols, but is insoluble in methylene chloride, chloroform or toluene. […]

[2] = cited from earlier work; for solubility in alcohols: alcohols such as methanol, ethanol, isopropanol

| Molecule | solubility in alcohols ([1]; alcohols, physical properties comparison) | solubility in chloroform ([1]; chloroform) | solubility in methylene chloride ([1]; methylene chloride) | solubility in toluene ([1]; toluene) | solubility in water ([1]; water, physical properties comparison) | solubility in alcohols [1] | solubility in toluene [1] | solubility in water [1] | solubility in alcohols [2] | solubility in water [2] | solubility in chloroform [1] | solubility in methylene chloride [1] | solubility in water ([2]; in words) |
| --- | --- | --- | --- | --- | --- | --- | --- | --- | --- | --- | --- | --- | --- |
| guaifenesin tannate | soluble | insoluble | insoluble | insoluble | soluble |  |  |  |  |  |  |  |  |
| COc1ccccc1OCC(O)CO (centres unmarked) [guaifenesin, 3-(2-methoxyphenoxy)-1,2-propanediol] |  |  |  |  |  | soluble | sparingly soluble | soluble | readily soluble | about 5 wt. % |  |  |  |
| O=C(OC[C@H]1O[C@@H](OC(=O)c2cc(O)c(O)c(OC(=O)c3cc(O)c(O)c(O)c3)c2)[C@H](OC(=O)c2cc(O)c(O)c(OC(=O)c3cc(O)c(O)c(O)c3)c2)[C@@H](OC(=O)c2cc(O)c(O)c(OC(=O)c3cc(O)c(O)c(O)c3)c2)[C@@H]1OC(=O)c1cc(O)c(O)c(OC(=O)c2cc(O)c(O)c(O)c2)c1)c1cc(O)c(O)c(OC(=O)c2cc(O)c(O)c(O)c2)c1 [tannic acid] |  |  |  |  |  | soluble | insoluble | soluble | highly soluble |  | insoluble | insoluble | highly soluble |
